We go through twelve molecules from article PMC11952846, “The sterol-regulating human ARV1 binds cholesterol and phospholipids through its conserved ARV1 homology domain” (The Journal of Biological Chemistry, 2025).

For test [1], the target named is T1, GST-ARV1 (full-length ARV1) (Homo sapiens, UniProt Q9H2C2).
T1 construct: Expresses full length ARV1; made in house; host or cells: E. coli BL21 (pGEX-4T1)
T1 sequence (Q9H2C2 1-271): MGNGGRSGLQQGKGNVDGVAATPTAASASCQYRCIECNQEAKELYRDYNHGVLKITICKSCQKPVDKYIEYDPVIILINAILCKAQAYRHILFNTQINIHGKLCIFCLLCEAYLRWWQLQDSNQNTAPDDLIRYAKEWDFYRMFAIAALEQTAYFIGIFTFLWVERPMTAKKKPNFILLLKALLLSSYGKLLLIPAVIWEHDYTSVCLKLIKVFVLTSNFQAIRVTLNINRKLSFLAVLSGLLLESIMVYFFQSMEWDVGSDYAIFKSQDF
Kind of test: Lipid overlay far western. The format is binding. The protocol: (§1) Lipid overlays were blocked in TBST-BSA (100 mM Tris–HCl buffer, pH 7.5, 150 mM NaCl, 0.5% Tween 20, 3% bovine serum albumin) for 1 h and subsequently washed eight separate times with TBST for 2 min each. Overlays were incubated with 0.5 μg/ml GST-tagged or 6XHIS-tagged proteins in 3% TBST-BSA buffer containing 0.1% Triton X-100, for 1 h at room temperature and washed as above. Overlays were incubated with either anti-GST or anti-6XHIS monoclonal antibodies at a 1:1000 dilution in TBST-BSA for 1 h at room temperature followed by eight washes in TBST. Overlays were visualized using Immobilon Western Chemiluminescent horseradish peroxidase substrate and protein–lipid interaction was detected using a GE ImageQuant LAS 3000 imager.

A further test deals with T2, GST-ARV1-N98 (Homo sapiens, UniProt Q9H2C2).
T2 construct: Expresses amino-terminal 98 amino acids of ARV1; made in house; host or cells: E. coli BL21 (pGEX-4T1)
T2 sequence (Q9H2C2 1-98): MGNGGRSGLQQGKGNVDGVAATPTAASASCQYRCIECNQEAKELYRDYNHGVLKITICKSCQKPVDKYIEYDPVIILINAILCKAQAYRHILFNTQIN
Put plainly: Lipid overlay far western. The format is binding. The protocol: as §1

The target of another test is T3, 6XHIS-ARV1-N98 K67A (Homo sapiens, UniProt Q9H2C2, K67A).
T3 construct: Expressing amino-terminal 98 amino acids of ARV1; made in house; host or cells: E. coli BL21 (pET-28a(+))
T3 sequence (Q9H2C2 1-98 K67A): T2 sequence (Q9H2C2 1-98) with K67A
Put plainly: Lipid overlay far western, site-directed mutant. The test is classed as binding. The note with it: compared to the ARV1-N98 protein. As to the method:
as §1

The next test has as its target T4, 6XHIS-ARV1-N98 K84A (Homo sapiens, UniProt Q9H2C2, K84A).
T4 construct: Expressing amino-terminal 98 amino acids of ARV1; made in house; host or cells: E. coli BL21 (pET-28a(+))
T4 sequence (Q9H2C2 1-98 K84A): T2 sequence (Q9H2C2 1-98) with K84A
Put plainly: Lipid overlay far western, site-directed mutant. The format is binding. The note with it: compared to the ARV1-N98 protein. As to the method:
as §1

The target in test [2] is T5, GST-Annexin A2 (Homo sapiens, UniProt P07355). Kind of test: Lipid overlay far western (positive control protein). The test is classed as binding. As to the method: as §1
T5 sequence (P07355 whole entry): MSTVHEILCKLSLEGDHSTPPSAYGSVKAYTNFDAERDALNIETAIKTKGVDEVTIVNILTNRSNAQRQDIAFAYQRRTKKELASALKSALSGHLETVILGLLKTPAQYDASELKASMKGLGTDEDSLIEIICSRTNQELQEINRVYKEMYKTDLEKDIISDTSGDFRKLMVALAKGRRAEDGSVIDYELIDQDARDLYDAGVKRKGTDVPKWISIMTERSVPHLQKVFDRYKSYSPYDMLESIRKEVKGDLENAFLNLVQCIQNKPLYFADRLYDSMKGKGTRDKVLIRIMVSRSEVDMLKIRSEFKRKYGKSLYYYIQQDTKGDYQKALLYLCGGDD
Another test has as its target T6, GST-ARV1-N70 (Homo sapiens, UniProt Q9H2C2).
T6 construct: Expresses amino-terminal 70 amino acids of ARV1; made in house; host or cells: E. coli BL21 (pGEX-4T1)
T6 sequence (Q9H2C2 1-70): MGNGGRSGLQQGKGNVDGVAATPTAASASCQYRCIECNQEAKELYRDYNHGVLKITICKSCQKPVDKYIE
Kind of test: Lipid overlay far western, truncation. To be noted: compared to ARV1-N98. The format is binding. The protocol: as §1

The next test concerns the target T7, GST-ARV1-N50 (Homo sapiens, UniProt Q9H2C2).
T7 construct: Expresses amino-terminal 50 amino acids of ARV1; made in house; host or cells: E. coli BL21 (pGEX-4T1)
T7 sequence (Q9H2C2 1-50): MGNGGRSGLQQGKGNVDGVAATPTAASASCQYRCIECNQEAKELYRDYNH
Put plainly: Lipid overlay far western, truncation. The test is classed as binding. To be noted: compared to ARV1-N98 / ARV1-N70. As to the method:
as §1

Test [3] has as its target T1, GST-ARV1 (full-length ARV1). Put plainly: Protein-lipid liposome binding assay (ultracentrifugation, Western blot). As to the method: (§2) Lyophilized lipids were reconstituted in chloroform at 10 mg/ml and stored in glass tubes with Teflon tops at −20 °C until use. One milliliter of 10 mg/ml stock was dried under a stream of nitrogen in a glass tube until a lipid cake/film was formed. The lipid cake was then rehydrated in BLT rehydration buffer (5 mM Tris/HCl, pH 7.4, containing 150 mM NaCl) to a concentration of 1 mg/ml. Lipid suspensions were subjected to three freeze/thaw cycles using a dry ice ethanol/[…] water bath to encapsulate the buffer and improve liposome formation. The suspension and lipid extruder were equilibrated to temperature for 10 min and liposomes were extruded using […] polycarbonate membranes (Avestin). Liposomes were made by mixing stock lipid PL (1 mg/ml) with PC (10 mg/ml).
(§3) Cholesterol composition liposomes were rehydrated with cholesterol rehydration buffer (10 mM Hepes, pH 7.4, containing 150 mM KCl).
(§4) Liposomes were serial diluted in floatation buffer (100 mM NaCl, 2 mM EDTA, pH 5.5) to a final concentration of 0.1 mg/ml. Nine hundred microliters of liposome solution was placed in clear ultracentrifuge tubes and mixed with 100 μl of 0.01 μg/ml of protein. The liposome/protein solution was incubated at room temperature for 1 h with occasional shaking. An initial 100 μl of liposome/protein solution (liposomes) was removed and the remaining 900 μl was centrifuged at 50,000g for 20 min at 4 °C. The pellet was resuspended in 800 μl of fresh floatation buffer, centrifuged as above, and 800 μl of supernatant was removed (wash 1). This was repeated a second time and again 800 μl of supernatant was removed (wash 2). The final pellet was resuspended in 100 μl of floatation buffer plus SDS treatment buffer (pellet). Thirty microliters of each fraction was run on a 15% SDS-PAGE gel and probed with an anti-GST monoclonal antibody at a 1:1500 dilution.
A general note: In western blotting, separated proteins are transferred to a membrane and probed.

Test [4] has as its target T8, GST-ARV1-N98 (N-terminal 98 amino acids, AHD) (Homo sapiens, UniProt Q9H2C2).
T8 construct: Expresses amino-terminal 98 amino acids of ARV1; made in house; host or cells: E. coli BL21 (pGEX-4T1)
T8 sequence (Q9H2C2 1-98): T2 sequence (Q9H2C2 1-98)
The description is as above. As to the method:
as §2, §3, §4

A further test has as its target T9, 6XHIS-ARV1-N98 (Homo sapiens, UniProt Q9H2C2).
T9 construct: made in house; host or cells: E. coli BL21
T9 sequence (Q9H2C2 1-98): T2 sequence (Q9H2C2 1-98)
Put plainly: HTRF phospholipid lipid-binding assay. To be noted: biotinylated lipid (Bio-PL) titrated, 0.75 μM protein; lipid labels mean the biotinylated lipids. An excerpt: An HTRF assay was developed for 6XHIS-ARV1-N98-lipid binding. HTRF measures analyte interactions through fluorescence resonance energy transfer technology and time-resolved measurements ([53]). The interaction between two molecules can be quantified through binding each individual molecule involved with a fluorescent label and then analyzing the transfer of energy between the initial donor fluorophore and the secondary acceptor fluorophore. Following excitation of the first fluorophore, transfer of energy can only occur if the molecules bound with the fluorescent tags are within proximity to each other.
Assays were plated in 384-well flat bottom microplates (Greiner Bio, catalog #784075-25). Proteins were diluted using binding buffer (20 mM Hepes buffer, pH 7.2, containing 0.1% BSA, and 0.01% Tween20) to a stock concentration of 0.75 μM, and biotinylated phospholipids were dispensed, dried under nitrogen gas, and resuspended in binding buffer to a stock concentration of 50 μM. The lipid stock solution was diluted by 1:2 for a series of 12 serial dilutions. For the assay, in sequential order, 6 μl of binding buffer was loaded into the plate in triplicate for each dilution of phospholipid. To this, 2 μl of 0.75 μM 6XHIS-ARV1-N98 was added, followed by 2 μl of biotinylated phospholipid. Immediately following each addition loaded into the plate, the plate was centrifuged for 1 min at 1000 rpm to bring the contents to the bottom of the well. Next, detection antibodies were mixed with detection buffer (20 mM Hepes buffer, pH 8.5, containing 0.01% BSA and 200 mM KF). […] Plates were read on a PerkinElmer EnVision Xcite Multilabel plate reader.
Curves were logarithmically transformed and normalized to a common scale before being fit with a nonlinear regression of the agonist against the normalized response. […] For phospholipid competition analysis, IC50; M values were determined using nonlinear regression of the inhibitor against normalized response.
For orientation: TR-FRET usually uses a lanthanide donor and a delayed reading to cut background.

The target in test [5] is T5, GST-Annexin A2. Put plainly: Protein-lipid liposome binding assay (positive control protein). The note with it: protein detected in final pellet. The protocol:
as §2, §4

In another test the target is T10, 6XHIS-ARV1-N98 C34/C37A (Homo sapiens, UniProt Q9H2C2, C34A/C37A).
T10 construct: Expressing amino-terminal 98 amino acids of ARV1; made in house; host or cells: E. coli BL21 (pET-28a(+))
T10 sequence (Q9H2C2 1-98 C34A/C37A): T2 sequence (Q9H2C2 1-98) with C34A, C37A
Put plainly: Lipid overlay far western, site-directed mutant. The test is classed as binding. To be noted: compared to the ARV1-N98 protein. As to the method: as §1

Where [6] appears, read: lipid-embedded membrane strips, incl. sphingolipid strip.
[7] abbreviates: PIP lipid membrane strip, 100pmol-1.56pmol per spot.
[8] abbreviates: protein detected in final pellet.
The mark [9] stands for this setting: liposomes containing 10% and 20% cholesterol.
The mark [10] stands for this setting: liposomes containing 30 to 50% cholesterol.

Substitutions are numbered along the chain they refer to.

Turning to `CCCCCCCCCCCCCC[C@@H](O)[C@@H](O)[C@@H](N)CO` [phytosphingosine], the lipid-protein interaction entry (in test [1] (setting [6]); on GST-ARV1-N98 (setting [6])) was “not” throughout.
Turning to lyso-phosphatidylcholine, the lipid-protein interaction result (in test [1] (setting [6]); on GST-ARV1-N98 (setting [6])) was “not seen” in each case.
As to `CCCCCCCC/C=C\CCCCCCCC(=O)OC[C@@H](O)COP(=O)(O)O` [lyso-phosphatidic acid], the lipid-protein interaction result (in test [1] (setting [6]); on GST-ARV1-N98 (setting [6])) was “not seen” throughout.
ceramide: the lipid-protein interaction entry (in test [1] (setting [6]); at GST-ARV1-N98 (setting [6])) was “not” each time.
`CCCCCCCCCCCCC/C=C/[C@@H](O)[C@@H](N)COP(=O)(O)O` [sphingosine-1-phosphate]: the lipid-protein interaction result (in test [1] (setting [6]); at GST-ARV1-N98 (setting [6])) was “not” each time.
In the case of PI(3,4,5)P3, the “change of lipid-protein interaction” value on 6XHIS-ARV1-N98 K67A and at 6XHIS-ARV1-N98 K84A was “increased interactions” throughout. In addition, the lipid-protein interaction result at GST-Annexin A2 [2] (setting [6]) is listed as “interacted”.
Turning to `CCCCCC(=O)O[C@H](COC(=O)CCCCCNC(=O)CCCC[C@@H]1SC[C@@H]2NC(=O)N[C@@H]21)COP(=O)(O)O[C@H]1[C@H](O)[C@@H](OP(=O)(O)O)[C@H](O)[C@@H](O)[C@H]1O` [PI(5)P, reference compound], the lipid-protein interaction entry in test [1] (setting [7]) is “interacted”; at GST-ARV1-N98 (setting [7]), “interacted”; on GST-Annexin A2 [2] (setting [7]), “strongest interactions”. The “change of lipid-protein interaction” value on GST-ARV1-N70 is “reduced interactions”; at GST-ARV1-N50, “eliminated”.
One may read the EC50 as the concentration at which the effect is half-maximal. With “phosphatidylinositol [PI, reference compound]”, the “binding to PC:PL liposomes” value (in [3] (setting [8]); in test [4] (setting [8]); at GST-Annexin A2 [5]) was “not” each time. It took 12 µM to reach a half-maximal effect on 6XHIS-ARV1-N98 (EC50).
As for `CCCCCCCCCCCCC/C=C/[C@@H](O)[C@@H](N)CO` [sphingosine], the lipid-protein interaction entry (in test [1] (setting [6]); on GST-ARV1-N98 (setting [6])) was “not” in each case.
Take `CC(C)CCC[C@@H](C)[C@H]1CC[C@H]2[C@@H]3CC=C4C[C@@H](O)CC[C@]4(C)[C@H]3CC[C@]12C` [cholesterol]: the lipid-protein interaction entry (in test [1] (setting [6]); at GST-ARV1-N98 (setting [6])) was “not seen” throughout. Also, the “binding to PC:Chol liposomes” value is on record as “bound” in test [3] (setting [9]), “neither ARV1 nor ARV1-N98 associated” in test [3] (setting [10]), “bound” in test [4] (setting [9]) and “neither ARV1 nor ARV1-N98 associated” in test [4] (setting [10]).
With `CCCCCC(=O)O[C@H](COC(=O)CCCCCNC(=O)CCCC[C@@H]1SC[C@@H]2NC(=O)N[C@@H]21)COP(=O)(O)O[C@@H]1[C@H](O)[C@H](O)[C@@H](OP(=O)(O)O)[C@H](OP(=O)(O)O)[C@H]1O` [PI(4,5)P2, reference compound], the figures for the “change of lipid-protein interaction” value on 6XHIS-ARV1-N98 K67A, on 6XHIS-ARV1-N98 C34/C37A and on 6XHIS-ARV1-N98 K84A were “increased interactions”, “enhanced interactions” and “increased interactions”, respectively. Besides, the lipid-protein interaction entry at GST-Annexin A2 [2] (setting [6]) is on record as “interacted”.
On to `CCCCCC(=O)O[C@H](COC(=O)CCCCCNC(=O)CCCC[C@@H]1SC[C@@H]2NC(=O)N[C@@H]21)COP(=O)(O)O[C@@H]1[C@H](O)[C@H](OP(=O)(O)O)[C@@H](O)[C@H](O)[C@H]1O` [reference compound], for which the lipid-protein interaction result in test [1] (setting [7]) is given as “interacted”; on GST-ARV1-N98 (setting [7]), “interacted”; on GST-Annexin A2 [2] (setting [7]), “strongest interactions”. Besides, the figures for the “change of lipid-protein interaction” value on GST-ARV1-N70 and on GST-ARV1-N50 were “reduced interactions” and “enhanced”, respectively.
